Literature values in US7776886B2, “Cyclopropyl piperidine glycine transporter inhibitors” (Merck Sharp & Dohme Corp., priority 2004, dated 2010).

Experiments:
[1] = mice
NMDA receptor = conditions: rat
[2] = schizophrenia patients poorly responsive to antipsychotic drugs

Row | SMILES | pre-pulse inhibition (measure of sensory gating) [1] | NMDA receptor activity (NMDA receptor) | NMDA receptor-dependent long-term potentiation (NMDA receptor) | effect on positive, negative and cognitive symptoms [2]
1 | CN(CCC(Oc1ccc(-c2ccccc2)cc1)c1ccc(F)cc1)CC(=O)O (stereo not shown) [NFPS, (N-[3-(4′-fluorophenyl)-3-(4′-phenylphenoxy)propyl])sarcosine] | enhance pre-pulse inhibition | potentiates | potentiates | –
2 | CNCC(=O)O [sarcosine] | – | – | – | beneficial effect
